Drawing on US10654818B2, “Furane derivatives as inhibitors of ATAD2” (BAYER PHARMA AKTIENGESELLSCHAFT, priority 2015, dated 2020), this text covers IC50 for twelve molecules.

This experiment has as its target T1, recombinant, N-terminally GST-tagged ATAD2 bromodomain amino acids 981-1108 (Homo sapiens, UniProt Q6PL18).
T1 construct: ATAD2 bromodomain amino acids 981-1108; made in house; host or cells: E. coli
T1 sequence (Q6PL18 981-1108): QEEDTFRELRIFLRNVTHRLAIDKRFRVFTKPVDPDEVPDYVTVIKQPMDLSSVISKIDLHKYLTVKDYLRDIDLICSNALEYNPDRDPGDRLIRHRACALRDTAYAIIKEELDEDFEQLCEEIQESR
The experiment is described as follows: TR-FRET assay: disruption of the interaction between ATAD2 and acetylated Histone H4 (Ac-H4) peptide. Type of experiment: binding. To be noted: inhibition of ATAD2/Ac-H4 complex formation; 10 nM ATAD2, 50 nM Ac-H4 peptide. The text has this:
The ability of the compounds described in the present invention to disrupt the interaction between ATAD2 and acetylated Histone H4 (Ac-H4) was used as quantitative measure of their ATAD2-binding affinities.
To this end a TR-FRET assay which detects the binding of an Ac-H4-derived synthetic peptide (purchased from e.g. Biosyntan (Berlin, Germany)) of sequence HSGRGKGGGGKGLGK(Ac)GGAKRHRK-Biotin to recombinant, N-terminally GST-tagged ATAD2 bromodomain amino acids 981-1108. The protein was produced in-house via E. coli expression followed by GSH-Sepharose affinity- and Superdex S200-size exclusion chromatography purification.
Typically, 11 different concentrations of each compound (0.1 nM, 0.33 nM, 1.1 nM, 3.8 nM, 13 nM, 44 nM, 0.15 μM, 0.51 μM, 1.7 μM, 5.9 μM and 20 μM) were tested in duplicate within the same microtiter plate. To this end, 100-fold concentrated compound solutions (in DMSO) were previously prepared with a Precision Pippeting System (BioTek) by serial dilution (1:3.4) of 2 mM stocks in clear, low-volume 384-well microtiter source plates (Greiner Bio-One). Subsequently, 50 nl of compounds were transferred into black, low-volume test plates from the same supplier using a Hummingbird capillary based liquid handling instrument (Digilab). Tests were started by the addition of 2 μl of 2.5-fold concentrated ATAD2 solution (25 nM=10 nM final concentration in the 5 μl assay volume) in aqueous assay buffer [50 mM HEPES pH 7.5, 50 mM potassium fluoride (KF), 100 mM sodium chloride (NaCl), 0.25 mM CHAPS, 0.05% bovine serum albumine (BSA) and 1 mM dithiothreitol (DTT)] to the compounds in the test plate with a Multidrop dispenser (Thermo-Fisher). Test plates were then incubated 10′ at 22° C., in order to allow pre-equilibration of putative compound-ATAD2 complexes. Subsequently, 3 μl of a 1.67-fold concentrated solution containing Ac-H4 peptide (83.5 nM=50 nM final concentration) and TR-FRET detection reagents [16.7 nM Anti-GST-XL665 (Cisbio), =10 nM final concentration and 4.17 nM Lance EU W-1024 Streptavidin Europium Chelate (Perkin-Elmer)=2.5 nM final concentration were dispensed into the plates.
The mixture was further incubated in the dark for 1 hour at 22° C. Finally the inhibition of the formation of ATAD2/Ac-H4 complexes was assessed by measurement of the resonance energy transfer from the Streptavidin-Eu-Chelate to the anti-GST-XL665 antibody present in the reaction. To this end, the fluorescence emissions at 622 nm and 665 nm after excitation at 337 nm were measured in a TR-FRET reader, e.g. a Rubystar or Pherastar (both from BMG Lab Technologies) or a Viewlux (Perkin-Elmer) and the ratio of the emissions at 665 nm and at 622 nm was taken as indicator for the amount of ATAD2/Ac-H4 complexes in equilibrium.
The data were normalized using two sets of control wells (16 each). The first accounted for 100% ATAD2/Ac-H4 binding (0% inhibition), and contained all reaction components but DMSO instead of inhibitors. The second represented 0% ATAD2/Ac-H4 binding (100% inhibition), and included all assay components except ATAD2. IC50 values were calculated by fitting the normalized inhibition data to a 4-parameter logistic equation using either Screener software (Genedata) or a Bayer-proprietary analysis software.
Turning to `Cc1ccc([C@@H](C)NCc2ccc(-c3ccc(Cl)c(C(=O)N[C@H](Cc4ccc(C#N)cc4)[C@@H](C)O)c3)o2)cc1` [Example 16, 2-chloro-N-[(2R,3R)-1-(4-cyanophenyl)-3-hydroxybutan-2-yl]-5-[5-({[(1R)-1-(4-methylphenyl)ethyl]amino}methyl)-2-furyl]benzamide], the IC50 was 570 nM.
Take `Cc1ccc([C@@H](C)NCc2ccc(-c3ccc(Cl)c(C(=O)N[C@@H](CCN4CCN(C)C[C@H]4C)Cc4ccc(C#N)cc4)c3)o2)cc1` [Example 32, 2-chloro-N-{(2R)-1-(4-cyanophenyl)-4-[(2R)-2,4-dimethylpiperazin-1-yl]butan-2-yl}-5-[5-({[(1R)-1-(4-methylphenyl)ethyl]amino}methyl)-2-furyl]benzamide]: the IC50 came out at 130 nM.
The figure for `Cc1ccc([C@@H](C)NCc2ccc(-c3ccc(Cl)c(C(=O)N[C@@H](CCN4CCOCC4)Cc4ccc(C#N)cc4)c3)o2)cc1` [Example 29, 2-chloro-N-[(2R)-1-(4-cyanophenyl)-4-(morpholin-4-yl)butan-2-yl]-5-[5-({[(1R)-1-(4-methylphenyl)ethyl]amino}methyl)-2-furyl]benzamide] is 675 nM; for `Cc1ccc([C@@H](C)NCc2ccc(-c3ccc(Cl)c(C(=O)N[C@H](Cc4ccc(C#N)cc4)C(N)=O)c3)o2)cc1` [Example 2, Nα-{2-chloro-5-[5-({[(1R)-1-(4-methylphenyl)ethyl]amino}methyl)-2-furyl]benzoyl}-4-cyano-D-phenylalaninamide] it is 949 nM.
With `Cc1ccc([C@@H](C)NCc2ccc(-c3ccc(Cl)c(C(=O)N[C@@H](CCN4CCN[C@H](C)C4)Cc4ccc(C#N)cc4)c3)o2)cc1` [Example 27, 2-chloro-N-{(2R)-1-(4-cyanophenyl)-4-[(3R)-3-methylpiperazin-1-yl]butan-2-yl}-5-[5-({[(1R)-1-(4-methylphenyl)ethyl]amino}methyl)-2-furyl]benzamide], the IC50 amounted to 116 nM.
The figure for `COc1cc(Cl)c(C(=O)N[C@@H](CN)Cc2ccc(C#N)cc2)cc1-c1ccc(CN[C@H](C)c2ccc(C)cc2)o1` [Example 83, N-[(2R)-1-amino-3-(4-cyanophenyl)propan-2-yl]-2-chloro-4-methoxy-5-[5-({[(1R)-1-(4-methylphenyl)ethyl]amino}methyl)-2-furyl]benzamide] is 233 nM; for `Cc1ccc([C@@H](C)NCc2ccc(-c3ccc(Cl)c(C(=O)N[C@@H](CNCC(C)C)Cc4ccc(C#N)cc4)c3)o2)cc1` [Example 61] it is 798 nM; for `Cc1ccc([C@@H](C)NCc2ccc(-c3ccc(Cl)c(C(=O)N[C@@H](CO)Cc4ccccc4)c3)o2)cc1` [Example 96] it is 2650 nM.
The figure for `Cc1ccc([C@@H](C)NCc2ccc(-c3ccc(Cl)c(C(=O)N[C@@H](CC(=O)N4CCOCC4)Cc4ccc(C#N)cc4)c3)o2)cc1` [Example 10, 2-chloro-N-[(2R)-1-(4-cyanophenyl)-4-(morpholin-4-yl)-4-oxobutan-2-yl]-5-[5-({[(1R)-1-(4-methylphenyl)ethyl]amino}methyl)-2-furyl]benzamide] is 674 nM.
The figure for `Cc1ccc([C@@H](C)NCc2ccc(-c3ccc(Cl)c(C(=O)N[C@@H](CO)Cc4cc(F)c(C#N)cc4C)c3)o2)cc1` [Example 38, 2-chloro-N-[(2R)-1-(4-cyano-5-fluoro-2-methylphenyl)-3-hydroxypropan-2-yl]-5-[5-({[(1R)-1-(4-methylphenyl)ethyl]amino}methyl)-2-furyl]benzamide] is 365 nM; for `Cc1ccc([C@@H](C)NCc2ccc(-c3ccc(Cl)c(C(=O)N[C@@H](CNCC4CCNCC4)Cc4ccc(C#N)cc4)c3)o2)cc1` [Example 69] it is 112 nM.
For `CNC(=O)C[C@@H](Cc1ccc(C#N)cc1)NC(=O)c1cc(-c2ccc(CNC(C)(C)c3ccc(C)cc3)o2)ccc1Cl` [Example 94], the IC50 turned out to be 2980 nM.
